One molecule from BindingDB's records for doi:10.1016/j.bmc.2007.04.026 (University of Ferrara, 2007) can be followed below.

Test [1] addresses Nociceptin receptor (Mus musculus, UniProt P35377). The test can be described thus: Antagonist activity at NOP receptor in Swiss mouse vas deferens […].
In test [2] the target is Nociceptin receptor (Rattus norvegicus, UniProt P35370). The test can be described thus: Antagonist activity at NOP receptor in Sprague-Dawley rat vas deferens assessed as effect on electrically stimulated contractions.
The target in test [3] is Nociceptin receptor (Cavia porcellus, UniProt P47748). The test is described as follows: Antagonist activity at NOP receptor in Albino guinea pig ileum assessed as effect on electrically stimulated contractions.

Molecules are shown by their SMILES. Where a SMILES comes first, the peptide text is derived from it. [ ]: non-standard residue; d: D form. ξ: configuration not given here. Phe(4-F) = N[C@@H](Cc1ccc(F)cc1)C(=O)O; Aib = CC(C)(N)C(=O)O; ξDap = NCC(N)C(=O)O

Sequence of Nociceptin receptor (Cavia porcellus, UniProt P47748) (P47748 whole entry): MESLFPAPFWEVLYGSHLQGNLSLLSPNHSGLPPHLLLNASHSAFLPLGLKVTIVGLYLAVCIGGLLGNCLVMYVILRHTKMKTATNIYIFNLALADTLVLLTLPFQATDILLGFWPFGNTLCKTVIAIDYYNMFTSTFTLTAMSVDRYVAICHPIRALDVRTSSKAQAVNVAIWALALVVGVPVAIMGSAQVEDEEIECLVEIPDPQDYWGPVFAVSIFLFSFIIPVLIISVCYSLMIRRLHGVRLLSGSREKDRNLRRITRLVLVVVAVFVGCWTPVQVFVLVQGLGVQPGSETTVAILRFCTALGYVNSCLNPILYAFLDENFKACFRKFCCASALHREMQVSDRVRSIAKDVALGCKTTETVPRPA
Sequence of Nociceptin receptor (Rattus norvegicus, UniProt P35370) (P35370 whole entry): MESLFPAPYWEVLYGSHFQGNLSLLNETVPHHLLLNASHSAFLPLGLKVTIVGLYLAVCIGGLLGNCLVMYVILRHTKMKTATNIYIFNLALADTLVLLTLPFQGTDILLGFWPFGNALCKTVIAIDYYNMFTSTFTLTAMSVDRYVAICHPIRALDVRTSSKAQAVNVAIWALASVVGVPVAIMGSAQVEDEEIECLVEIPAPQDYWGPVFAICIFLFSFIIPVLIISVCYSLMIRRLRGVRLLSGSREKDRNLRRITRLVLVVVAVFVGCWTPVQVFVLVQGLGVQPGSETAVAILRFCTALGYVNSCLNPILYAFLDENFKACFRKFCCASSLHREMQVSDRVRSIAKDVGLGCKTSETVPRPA
Sequence of Nociceptin receptor (Mus musculus, UniProt P35377) (P35377 whole entry): as the sequence (P35370 whole entry) above, with Y9F, S335A counted along it

Consider `C[C@H](NC(=O)[C@H](CO)NC(=O)[C@H](CCCCN)NC(=O)[C@H](CCCN=C(N)N)NC(=O)C(C)(C)NC(=O)CNC(=O)[C@@H](NC(=O)[C@H](Cc1ccc(F)cc1)NC(=O)CNC(=O)C(CN)NC(=O)[C@@H](N)Cc1ccccc1)[C@@H](C)O)C(=O)N[C@@H](CCCN=C(N)N)C(=O)N[C@@H](CCCCN)C(=O)N[C@@H](CCCN=C(N)N)C(=O)N[C@@H](CCCCN)C(=O)N[C@@H](CC(N)=O)C(=O)N[C@@H](CCC(N)=O)C(N)=O` (stereo partly drawn) (H-F[ξDap]G[Phe(4-F)]TG[Aib]RKSARKRKNQ-NH2), for which the figures for the dissociation constant Kd at Nociceptin receptor [1], on Nociceptin receptor [2] and at Nociceptin receptor [3] were 794 pM, 603 pM and 316 pM, respectively.
